The target in test [1] is T1, STAT6 protein (Homo sapiens, UniProt P42226).
T1 sequence (P42226 1-847): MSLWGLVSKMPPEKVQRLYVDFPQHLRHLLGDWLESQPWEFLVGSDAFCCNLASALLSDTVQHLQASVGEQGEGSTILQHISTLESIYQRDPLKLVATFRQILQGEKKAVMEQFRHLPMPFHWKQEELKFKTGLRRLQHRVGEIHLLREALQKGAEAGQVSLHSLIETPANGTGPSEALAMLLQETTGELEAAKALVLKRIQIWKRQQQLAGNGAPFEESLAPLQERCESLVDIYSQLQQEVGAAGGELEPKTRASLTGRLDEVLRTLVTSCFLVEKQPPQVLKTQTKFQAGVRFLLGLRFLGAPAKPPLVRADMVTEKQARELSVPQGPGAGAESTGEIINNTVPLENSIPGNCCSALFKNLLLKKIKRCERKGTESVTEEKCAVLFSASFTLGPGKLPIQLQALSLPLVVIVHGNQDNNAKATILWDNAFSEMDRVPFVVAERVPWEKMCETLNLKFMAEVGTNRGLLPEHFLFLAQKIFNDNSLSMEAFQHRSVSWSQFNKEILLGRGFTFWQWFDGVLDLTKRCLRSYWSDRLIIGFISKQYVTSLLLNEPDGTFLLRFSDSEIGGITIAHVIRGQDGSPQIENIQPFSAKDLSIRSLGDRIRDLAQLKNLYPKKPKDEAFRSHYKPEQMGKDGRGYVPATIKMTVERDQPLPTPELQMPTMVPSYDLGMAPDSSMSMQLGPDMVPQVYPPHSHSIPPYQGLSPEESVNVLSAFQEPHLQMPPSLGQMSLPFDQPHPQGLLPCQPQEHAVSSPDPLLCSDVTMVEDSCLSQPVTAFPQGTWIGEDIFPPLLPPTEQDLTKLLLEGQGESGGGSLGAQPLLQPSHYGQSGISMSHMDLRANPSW
Kind of test: Fluorescence polarization (FP) binding assay, STAT6. To be noted: FP competition, 5 nM fluorescein-labeled tracer, 200 nM protein, PBS pH7.4; read-out: Binding STAT6. Summed up:
(§1)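 Polarization of a 5 nM fluorescein tracer bound by 200 nM STAT protein, measured after 1 h room-temperature equilibration in buffered PBS pH 7.4 with DTT, gave inhibition constants via nonlinear curve fitting.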
A general note: Fluorescence polarisation rises when a labelled molecule tumbles more slowly, as on binding a larger partner.

The target in test [2] is T2, STAT5A (Homo sapiens, UniProt P42229).
T2 sequence (P42229 1-794): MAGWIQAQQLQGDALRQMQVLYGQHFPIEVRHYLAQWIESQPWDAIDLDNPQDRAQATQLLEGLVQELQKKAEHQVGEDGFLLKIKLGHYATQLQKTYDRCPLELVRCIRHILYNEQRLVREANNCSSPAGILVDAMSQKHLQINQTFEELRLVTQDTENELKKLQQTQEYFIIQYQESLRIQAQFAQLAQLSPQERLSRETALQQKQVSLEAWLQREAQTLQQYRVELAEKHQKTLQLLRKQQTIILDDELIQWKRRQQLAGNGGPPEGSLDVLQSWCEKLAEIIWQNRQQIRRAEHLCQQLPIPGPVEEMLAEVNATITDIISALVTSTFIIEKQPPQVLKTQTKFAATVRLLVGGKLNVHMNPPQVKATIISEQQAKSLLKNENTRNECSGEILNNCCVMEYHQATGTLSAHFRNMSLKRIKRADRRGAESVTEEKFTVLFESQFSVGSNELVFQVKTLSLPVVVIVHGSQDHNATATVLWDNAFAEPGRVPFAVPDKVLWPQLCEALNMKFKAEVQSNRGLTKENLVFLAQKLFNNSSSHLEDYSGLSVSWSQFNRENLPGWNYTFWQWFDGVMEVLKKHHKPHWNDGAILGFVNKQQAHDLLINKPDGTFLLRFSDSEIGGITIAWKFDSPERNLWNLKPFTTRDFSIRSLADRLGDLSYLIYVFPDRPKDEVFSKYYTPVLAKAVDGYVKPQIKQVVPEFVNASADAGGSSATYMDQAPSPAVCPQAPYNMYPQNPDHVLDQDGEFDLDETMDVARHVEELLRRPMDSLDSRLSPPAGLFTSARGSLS
The test is described as follows: Fluorescence polarization (FP) binding assay, STAT5A. To be noted: FP competition, 5 nM fluorescein-labeled tracer, 200 nM protein, PBS pH7.4. Summed up: as §1

For the molecule `CC(C)(C)[C@H](NC(=O)c1cc2cc(C(F)(F)P(=O)(O)O)ccc2s1)C(=O)N1CCC[C@H]1C(=O)N1CCS(=O)(=O)[C@@H](c2ccccc2)C1` [Compound 136, ((2-(((S)-1-((S)-2-((S)-1,1-dioxido-2-phenylthiomorpholine-4-carbonyl)pyrrolidin-1-yl)-3,3-dimethyl-1-oxobutan-2-yl)carbamoyl)benzo[b]thiophen-5-yl)difluoromethyl)phosphonic acid], the Ki in test [1] was in the range of 100 to 1000 nM; in test [2], 1 to 10 µM.
Taken in the same sequence, the figures for `CC(C)(C)[C@H](NC(=O)c1cc2cc(C(F)(F)P(=O)(O)O)ccc2s1)C(=O)N1CCC[C@H]1C(=O)N1CCC(O)C(c2ccccc2)C1` (stereo partly drawn) [Compound 137, (difluoro(2-(((2S)-1-((2S)-2-(4-hydroxy-3-phenylpiperidine-1-carbonyl)pyrrolidin-1-yl)-3,3-dimethyl-1-oxobutan-2-yl)carbamoyl)benzo[b]thiophen-5-yl)methyl)phosphonic acid] were 1000 to 10000 nM and greater than 10 µM.
For `CC(C)(C)[C@H](NC(=O)c1cc2cc(C(F)(F)P(=O)(O)O)ccc2s1)C(=O)N1CCC[C@H]1C(=O)N1CCOC(c2ccccn2)C1` (stereo partly drawn) [Compound 140, ((2-(((2S)-3,3-dimethyl-1-oxo-1-((2S)-2-(2-(pyridin-2-yl)morpholine-4-carbonyl)pyrrolidin-1-yl)butan-2-yl)carbamoyl)benzo[b]thiophen-5-yl)difluoromethyl)phosphonic acid], in that order: 100 to 1000 nM and greater than 10 µM.
Taken in the same sequence, the figures for `CC(C)(C)[C@H](NC(=O)c1cc2cc(C(F)(F)P(=O)(O)O)ccc2s1)C(=O)N1Cc2ccccc2C1C(=O)N1CCO[C@H](c2ccccc2)C1` (stereo partly drawn) [Compound 141, ((2-(((2S)-3,3-dimethyl-1-oxo-1-(1-((R)-2-phenylmorpholine-4-carbonyl)isoindolin-2-yl)butan-2-yl)carbamoyl)benzo[b]thiophen-5-yl)difluoromethyl)phosphonic acid] were 100 to 1000 nM and 1 to 10 µM.
As for `CC(C)(C)[C@H](NC(=O)c1cc2cc(C(F)(F)P(=O)(O)O)ccc2s1)C(=O)N1Cc2ccccc2C1C(=O)N1CCO[C@@H](c2ccccc2)C1` (stereo partly drawn) [Compound 142, ((2-(((2S)-3,3-dimethyl-1-oxo-1-(1-((S)-2-phenylmorpholine-4-carbonyl)isoindolin-2-yl)butan-2-yl)carbamoyl)benzo[b]thiophen-5-yl)difluoromethyl)phosphonic acid], the Ki was 1000 to 10000 nM in test [1] and greater than 10 µM in test [2].
As for `CCC(CC)[C@H](NC(=O)c1cc2cc(C(F)(F)P(=O)(O)O)ccc2s1)C(=O)N1CCC[C@H]1C(=O)N1CCO[C@H](c2ccccc2)C1` [Compound 144, ((2-(((S)-3-ethyl-1-oxo-1-((S)-2-((R)-2-phenylmorpholine-4-carbonyl)pyrrolidin-1-yl)pentan-2-yl)carbamoyl)benzo[b]thiophen-5-yl)difluoromethyl)phosphonic acid], the Ki in test [1] fell in the range of 100 to 1000 nM; in test [2], 1 to 10 µM.
For `CC(C)(C)[C@H](NC(=O)c1ccc2cc(C(F)(F)P(=O)(O)O)ccc2c1)C(=O)N1CCC[C@H]1C(=O)N1CCO[C@H](c2ccccc2)C1` [Compound 145, ((6-(((S)-3,3-dimethyl-1-oxo-1-((S)-2-((R)-2-phenylmorpholine-4-carbonyl)pyrrolidin-1-yl)butan-2-yl)carbamoyl)naphthalen-2-yl)difluoromethyl)phosphonic acid], in that order: 100 to 1000 nM and greater than 10 µM.
With `CC[C@H](NC(=O)c1cc2cc(C(F)(F)P(=O)(O)O)ccc2s1)C(=O)N1CCC[C@H]1C(=O)N1CCO[C@H](c2ccccc2)C1` [Compound 146, (difluoro(2-(((S)-1-oxo-1-((S)-2-((R)-2-phenylmorpholine-4-carbonyl)pyrrolidin-1-yl)butan-2-yl)carbamoyl)benzo[b]thiophen-5-yl)methyl)phosphonic acid], the results for the Ki in test [1] and in test [2] were 100 to 1000 nM and 1 to 10 µM, respectively.
Taken in the same sequence, the figures for `C#CC[C@H](NC(=O)c1cc2cc(C(F)(F)P(=O)(O)O)ccc2s1)C(=O)N1CCC[C@H]1C(=O)N1CCO[C@H](c2ccccc2)C1` [Compound 147, (difluoro(2-(((S)-1-oxo-1-((S)-2-((R)-2-phenylmorpholine-4-carbonyl)pyrrolidin-1-yl)pent-4-yn-2-yl)carbamoyl)benzo[b]thiophen-5-yl)methyl)phosphonic acid] were 100 to 1000 nM and greater than 10 µM.
With `O=C(N[C@H](C(=O)N1CCC[C@H]1C(=O)N1CCO[C@H](c2ccccc2)C1)C1CC1)c1cc2cc(C(F)(F)P(=O)(O)O)ccc2s1` [Compound 148, ((2-(((S)-1-cyclopropyl-2-oxo-2-((S)-2-((R)-2-phenylmorpholine-4-carbonyl)pyrrolidin-1-yl)ethyl)carbamoyl)benzo[b]thiophen-5-yl)difluoromethyl)phosphonic acid], the figures for the Ki in test [1] and in test [2] were 100 to 1000 nM and 1 to 10 µM, respectively.
Taken in the same sequence, the figures for `CC(C)(O)[C@H](NC(=O)c1cc2cc(C(F)(F)P(=O)(O)O)ccc2s1)C(=O)N1CCC[C@H]1C(=O)N1CCO[C@H](c2ccccc2)C1` [Compound 149, (difluoro(2-(((S)-3-hydroxy-3-methyl-1-oxo-1-((S)-2-((R)-2-phenylmorpholine-4-carbonyl)pyrrolidin-1-yl)butan-2-yl)carbamoyl)benzo[b]thiophen-5-yl)methyl)phosphonic acid] were 100 to 1000 nM and greater than 10 µM.
Taken in the same sequence, the figures for `CCC(CC)[C@H](NC(=O)c1cc2cc(C(F)(F)P(=O)(O)O)ccc2s1)C(=O)N1CCC[C@H]1C(=O)N1CCO[C@@H](c2ccccc2)C1` [Compound 150, ((2-(((S)-3-ethyl-1-oxo-1-((S)-2-((S)-2-phenylmorpholine-4-carbonyl)pyrrolidin-1-yl)pentan-2-yl)carbamoyl)benzo[b]thiophen-5-yl)difluoromethyl)phosphonic acid] were 1000 to 10000 nM and greater than 10 µM.
For `CC(C)(C)[C@H](NC(=O)c1ccc2cc(C(F)(F)P(=O)(O)O)ccc2c1)C(=O)N1CCC[C@H]1C(=O)N1CCO[C@@H](c2ccccc2)C1` [Compound 151, ((6-(((S)-3,3-dimethyl-1-oxo-1-((S)-2-((S)-2-phenylmorpholine-4-carbonyl)pyrrolidin-1-yl)butan-2-yl)carbamoyl)naphthalen-2-yl)difluoromethyl)phosphonic acid], in that order: 1000 to 10000 nM and greater than 10 µM.
Take `CCC[C@H](NC(=O)c1cc2cc(C(F)(F)P(=O)(O)O)ccc2s1)C(=O)N1CCC[C@H]1C(=O)N1CCO[C@@H](c2ccccc2)C1` [Compound 152, (difluoro(2-(((S)-1-oxo-1-((S)-2-((S)-2-phenylmorpholine-4-carbonyl)pyrrolidin-1-yl)pentan-2-yl)carbamoyl)benzo[b]thiophen-5-yl)methyl)phosphonic acid]: the values for the Ki in test [1] and in test [2] were 1000 to 10000 nM and greater than 10 µM, respectively.
For `C#CC[C@H](NC(=O)c1cc2cc(C(F)(F)P(=O)(O)O)ccc2s1)C(=O)N1CCC[C@H]1C(=O)N1CCO[C@@H](c2ccccc2)C1` [Compound 153, (difluoro(2-(((S)-1-oxo-1-((S)-2-((S)-2-phenylmorpholine-4-carbonyl)pyrrolidin-1-yl)pent-4-yn-2-yl)carbamoyl)benzo[b]thiophen-5-yl)methyl)phosphonic acid], in that order: 1000 to 10000 nM and greater than 10 µM.

Source of the values: patent US20230295200A1 (REGENTS OF THE UNIVERSITY OF MICHIGAN, priority 2022, published 2023).
